This note sets out measurements from patent US8993779B2, “Positive allosteric modulators of MGLUR2” (Merck Sharp & Dohme Corp., priority 2010, dated 2015).

Molecules are shown by their SMILES. Where only a bound is given, the exact number is not on record here.

One experiment deals with T1, recombinant human mGluR2 (Homo sapiens, UniProt Q14416).
T1 construct: expressed in transfected cells
T1 sequence (Q14416 19-872): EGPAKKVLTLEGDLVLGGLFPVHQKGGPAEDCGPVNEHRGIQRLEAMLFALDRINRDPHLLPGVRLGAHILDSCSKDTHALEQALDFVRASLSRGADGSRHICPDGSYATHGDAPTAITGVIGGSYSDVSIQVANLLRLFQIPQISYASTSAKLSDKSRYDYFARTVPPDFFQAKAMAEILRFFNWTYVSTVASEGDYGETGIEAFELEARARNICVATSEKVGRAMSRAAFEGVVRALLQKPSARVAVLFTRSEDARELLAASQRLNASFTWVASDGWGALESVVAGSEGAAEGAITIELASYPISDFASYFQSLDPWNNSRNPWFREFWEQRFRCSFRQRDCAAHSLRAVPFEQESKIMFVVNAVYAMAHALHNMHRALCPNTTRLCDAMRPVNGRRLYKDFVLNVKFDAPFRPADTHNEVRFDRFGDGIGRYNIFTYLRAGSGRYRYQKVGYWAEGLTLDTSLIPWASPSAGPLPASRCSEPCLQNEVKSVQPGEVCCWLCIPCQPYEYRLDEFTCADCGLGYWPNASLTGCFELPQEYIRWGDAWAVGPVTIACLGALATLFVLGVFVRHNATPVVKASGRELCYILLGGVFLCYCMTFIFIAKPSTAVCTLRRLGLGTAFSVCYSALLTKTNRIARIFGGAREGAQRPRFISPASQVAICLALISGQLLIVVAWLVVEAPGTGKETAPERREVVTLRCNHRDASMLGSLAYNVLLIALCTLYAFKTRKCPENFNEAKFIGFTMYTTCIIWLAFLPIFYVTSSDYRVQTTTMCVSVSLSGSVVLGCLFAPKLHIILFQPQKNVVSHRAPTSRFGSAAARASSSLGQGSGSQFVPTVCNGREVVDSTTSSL
Kind of experiment: FLIPR Ca2+ mobilization assay, potentiation of mGluR2 receptor. The experiment is classed as cell-based. The conditions noted are these: CHO dhfr- cells expressing human mGluR2 and Gα16; potentiation after EC20 glutamate (900 nM); read-out: FLIPR EC50. The protocol:
Activity in potentiating the mGluR2 receptor may be determined as follows. The compounds of the present invention are tested in a fluorescence laser imaging plate reader (FLIPR) based assay. This assay is a common functional assay to monitor Ca^2+ mobilization in whole cells expressing recombinant receptor coupled with a promiscuous G-protein. CHO dhfr-cells stably expressing recombinant human mGluR2 and Gα16 loaded with Fluo-4 AM (Invitrogen, Carlsbad Calif.) are treated with dose responses of compounds and the Ca^2+ response is monitored on a FLIPR384 (Molecular Devices, Sunnydale Calif.) for agonist activity. The potentiation response is monitored after a subsequent addition of an EC20 concentration of glutamate (900 nM). The maximum calcium response at each concentration of compound for agonist or potentiation are plotted as dose responses and the curves are fitted with a four parameters logistic equation giving EC50 and Hill coefficient using the iterative non linear curve fitting software program.
With `Cn1c(=O)n(CC(C)(C)C)c2ccc(-c3ccc4c(c3)CN(C(=O)OC(C)(C)C)CC4)cc21` [Example 1-187, tert-butyl 7-[1-(2,2-dimethylpropyl)-3-methyl-2-oxo-2,3-dihydro-1H-benzimidazol-5-yl]-3,4-dihydroisoquinoline-2(1H)-carboxylate], the half-maximal effective concentration (EC50) is 182 nM.
Turning to `CN1CCN(c2ccc(-c3ccc4c(c3F)n(C)c(=O)n4CC3(C)CC3)cn2)CC1` [Example 7-19, 4-fluoro-3-methyl-1-[(1-methylcyclopropyl)methyl]-5-[6-(4-methylpiperazin-1-yl)pyridin-3-yl]-1,3-dihydro-2H-benzimidazol-2-one], the concentration for a half-maximal effect (EC50) amounted to 781 nM.
On the same count and under the same terms, with `Cn1c(=O)n(CC(C)(C)C)c2ccc(-c3cccc(Oc4ccccc4)c3)cc21` [Example 4-8, 1-(2,2-dimethylpropyl)-3-methyl-5-(3-phenoxyphenyl)-1,3-dihydro-2H-benzimidazol-2-one] the figure was 1250 nM.
In the case of `Cn1c(=O)n(CC(C)(C)C)c2ccc(-c3cncc(Oc4ccc(C#N)nc4)n3)cc21` [Example 5-22, 5-({6-[1-(2,2-dimethylpropyl)-3-methyl-2-oxo-2,3-dihydro-1H-benzimidazol-5-yl]pyrazin-2-yl}oxy)pyridine-2-carbonitrile], the EC50 amounted to 364 nM.
Regarding `Cn1c(=O)n(CC2CC2)c2ccc(-c3ccncc3C(F)(F)F)c(F)c21` [Example 7-47, 1-(cyclopropylmethyl)-4-fluoro-3-methyl-5-[3-(trifluoromethyl)pyridin-4-yl]-1,3-dihydro-2H-benzimidazol-2-one], the EC50 worked out at 77 nM.
`Cn1c(=O)n(CC(C)(C)C)c2ccc(-c3cccc(Oc4cc(C(F)(F)F)ccn4)c3)cc21` [Example 2-4, 1-(2,2-dimethylpropyl)-3-methyl-5-(3-{[4-(trifluoromethyl)pyridin-2-yl]oxy}phenyl)-1,3-dihydro-2H-benzimidazol-2-one]: the EC50 stood at 496 nM.
For `Cc1ccc(-c2ccc3c(c2)n(C)c(=O)n3CC(C)(C)C)c(C#N)c1` [Example 1-94, 2-[1-(2,2-dimethylpropyl)-3-methyl-2-oxo-2,3-dihydro-1H-benzimidazol-5-yl]-5-methylbenzonitrile], the EC50 is 41 nM.
For `CN1CCCC(Oc2cccc(-c3ccc4c(c3)n(C)c(=O)n4CC(C)(C)C)n2)C1` (stereo not shown) [Example 5-12, 1-(2,2-dimethylpropyl)-3-methyl-5-{6-[(1-methylpiperidin-3-yl)oxy]pyridin-2-yl}-1,3-dihydro-2H-benzimidazol-2-one], the EC50 stood at 3350 nM.
On to `Cn1c(=O)n(CC(C)(C)C)c2ccc(-c3cccc(C(C)(O)c4ccccc4)n3)cc21` (stereo not shown) [Example 10-5, 1-(2,2-dimethylpropyl)-5-[6-(1-hydroxy-1-phenylethyl)pyridin-2-yl]-3-methyl-1,3-dihydro-2H-benzimidazol-2-one], for which the EC50 turned out to be 225 nM.
For the compound `COc1ncc(-c2ccc3c(c2)n(C)c(=O)n3CC(C)(C)C)c(OC)n1` [Example 1-61, 5-(2,4-dimethoxypyrimidin-5-yl)-1-(2,2-dimethylpropyl)-3-methyl-1,3-dihydro-2H--benzimidazol-2-one], the EC50 turned out to be 2660 nM.
Take `N#CCn1c(=O)n(CC2CC2)c2ccc(-c3ccccc3)cc21` [Example 1-9, [3-(cyclopropylmethyl)-2-oxo-6-phenyl-2,3-dihydro-1H-benzimidazol-1-yl]acetonitrile]: the concentration for a half-maximal effect (EC50) stood at 264 nM.
Take `Cn1c(=O)n(-c2cccc(C(F)(F)F)c2)c2ccc(-c3ccccc3C#N)cc21` [Example 6-9, 2-{3-methyl-2-oxo-1-[3-(trifluoromethyl)phenyl]-2,3-dihydro-1H-benzimidazol-5-yl}benzonitrile]: the concentration giving a half-maximal response (EC50) came out at 45 nM.
For the compound `Cn1c(=O)n(CC(C)(C)C)c2ccc(-c3cccc(OCc4ccccc4C(F)(F)F)c3)cc21` [Example 3-3, 1-(2,2-dimethylpropyl)-3-methyl-5-(3-{[2-(trifluoromethyl)benzyl]oxy}phenyl)-1,3-dihydro-2H-benzimidazol-2-one], the 50% effective concentration (EC50) amounted to 3650 nM.
For the compound `Cn1c(=O)n(CC(C)(C)C)c2ccc(-c3cccc(C(O)c4ccccc4)c3)cc21` (stereo not shown) [Example 10-3, 1-(2,2-dimethylpropyl)-5-{3-[hydroxy(phenyl)methyl]phenyl}-3-methyl-1,3-dihydro-2H-benzimidazol-2-one], the EC50 was found to be 129 nM.
`Cn1c(=O)n(CC(C)(C)C)c2ccc(-c3ncccc3C(F)(F)F)cc21` [Example 1-148, 1-(2,2-dimethylpropyl)-3-methyl-5-[3-(trifluoromethyl)pyridin-2-yl]-1,3-dihydro-2H-benzimidazol-2-one]: the EC50 was 126 nM.
For the compound `Cn1c(=O)n(CC(C)(C)C)c2ccc(-c3cc(C#N)cc(Oc4ccnc(C#N)c4)c3)cc21` [Example 2-38, 4-{3-cyano-5-[1-(2,2-dimethylpropyl)-3-methyl-2-oxo-2,3-dihydro-1H-benzimidazol-5-yl]phenoxy}pyridine-2-carbonitrile], the EC50 was determined as 41 nM.
As to `Cn1c(=O)n(CC(C)(C)C)c2ccc(-c3cc(Oc4cccc(C#N)n4)ccc3C#N)c(F)c21` [Example 8-5, 6-{4-cyano-3-[1-(2,2-dimethylpropyl)-4-fluoro-3-methyl-2-oxo-2,3-dihydro-1H-benzimidazol-5-yl]phenoxy}pyridine-2-carbonitrile], the EC50 worked out at 40 nM.

Staying with this experiment, now noted: potentiation after EC20 glutamate (900 nM); read-out: EC50 potentiating the mGluR2 receptor in the FLIPR assay.
As to `Cn1c(=O)n(C2CCN(c3ncccn3)CC2)c2ccc(-c3ccccc3C(N)=O)cc21` [Example 1-206, 2-[3-methyl-2-oxo-1-(1-pyrimidin-2-ylpiperidin-4-yl)-2,3-dihydro-1H-benzimidazol-5-yl]benzamide], the 50% effective concentration (EC50) is 20000 nM.
Consider `Cc1ccccc1-c1ccc2c(c1)n(C)c(=O)n2C1CCN(C(=O)OC(C)(C)C)CC1` [Example 1-205, tert-butyl 4-[3-methyl-5-(2-methylphenyl)-2-oxo-2,3-dihydro-1H-benzimidazol-1-yl]piperidine-1-carboxylate], for which the 50% effective concentration (EC50) is more than 30000 nM.
Regarding `Cc1ccccc1-c1ccc2c(c1)n(C)c(=O)n2C1CCNCC1` [Example 1-202, 3-methyl-5-(2-methylphenyl)-1-piperidin-4-yl-1,3-dihydro-2H-benzimidazol-2-one], the EC50 is more than 30000 nM.
Take `Cn1c(=O)n(C2CCNCC2)c2ccc(-c3ccccc3C(N)=O)cc21` [Example 1-203, 2-(3-methyl-2-oxo-1-piperidin-4-yl-2,3-dihydro-1H-benzimidazol-5-yl)benzamide]: the EC50 was more than 30000 nM.
As to `Cc1ccccc1-c1ccc2c(c1)n(C)c(=O)n2C1CCN(c2ncccn2)CC1` [Example 1-201, 3-methyl-5-(2-methylphenyl)-1-(1-pyrimidin-2-ylpiperidin-4-yl)-1,3-dihydro-2H-benzimidazol-2-one], the EC50 came to 12000 nM.
